Source: publication PMC6272992, “Synthesis and Cytotoxic Effect of Some Novel 1,2-Dihydropyridin-3-carbonitrile and Nicotinonitrile Derivatives” (Molecules, 2015)

For `N#Cc1c(-c2ccc(F)cc2)cc(-c2ccc(Cl)cc2Cl)[nH]c1=O` [Compound 2, 6-(2,4-Dichlorophenyl)-4-(4-fluorophenyl)-2-oxo-1,2-dihydropyridin-3-carbonitrile], the melting point was 276 to 277 °C. `N#Cc1c(-c2ccc(F)cc2)cc(-c2ccc(Cl)cc2Cl)nc1Cl` [Compound 11, 2-Chloro-6-(2,4-dichlorophenyl)-4-(4-fluorophenyl)nicotinonitrile] showed a melting point of 181 to 182 °C. With `N#Cc1c(-c2ccc(F)cc2)cc(-c2ccc(Cl)cc2Cl)nc1NCc1ccccc1` [Compound 12, 2-(Benzylamino)-6-(2,4-dichlorophenyl)-4-(4-fluorophenyl)nicotinonitrile] the melting point was 158 to 159 °C. Work on `N#Cc1c(-c2ccc(F)cc2)cc(-c2ccc(Cl)cc2Cl)nc1NCCc1ccccc1` [Compound 14, 6-(2,4-Dichlorophenyl)-4-(4-fluorophenyl)-2-(phenylethylamino)nicotinonitrile] yielded a melting point of 142 to 143 °C. `N#Cc1c(-c2ccc(F)cc2)cc(-c2ccc(Cl)cc2Cl)nc1N1CCOCC1` [Compound 15b, 6-(2,4-Dichlorophenyl)-4-(4-fluorophenyl)-2-morpholinonicotinonitrile] gave a melting point of 112 to 114 °C. In the case of `N#Cc1c(-c2ccc(F)cc2)cc(-c2ccc(Cl)cc2Cl)nc1NN=Cc1ccccc1Br` [Compound 21a, 2-[2-(2-Bromobenzylidene)hydrazinyl]-6-(2,4-dichlorophenyl)-4-(4-fluorophenyl)nicotinonitrile], the melting point is reported as 226 to 228 °C. `N#Cc1c(-c2ccc(F)cc2)cc(-c2ccc(Cl)cc2Cl)nc1NN=Cc1ccc([N+](=O)[O-])cc1` [Compound 21b, 6-(2,4-Dichlorophenyl)-4-(4-fluorophenyl)-2-[2-(4-nitrobenzylidene)hydrazinyl]nicotinonitrile] showed a melting point of 281 to 283 °C. `N#Cc1c(-c2ccc(F)cc2)cc(-c2ccc(Cl)cc2Cl)nc1NN=Cc1cccc2ccccc12` [Compound 21e, 6-(2,4-Dichlorophenyl)-4-(4-fluorophenyl)-2-[2-(naphthalen-1-ylmethylene)hydrazinyl] nicotinonitrile] showed a melting point of 296 to 298 °C.
